Source: patent US12419308B2, “Phenylpyrazole insecticide compounds and compositions” (priority 2023, dated 2025)
Like-named read-outs stand apart in the source and are kept apart here.

Experiments:
[1] = system: Human Cryopreserved Hepatocytes; assay: Metabolic stability in human cryopreserved hepatocytes; format: in vitro ADME
Procedure: The metabolic stability of the Compounds of Examples 1 and 4 is therefore evaluated to determine whether metabolic degradation results in metabolites of concern.
Briefly, Human Cryopreserved Hepatocytes (Gibco, lot. HUE125) are added to incubation wells in a 96-well assay plate at a density of 500,000 cells/mL in William's E Medium. […] The wells are incubated at 37° C. and stop solution is added to wells at time points: 0, 30, 60, 120, 240 min. The stop solution is ice-cold solution containing 0.5 μM labetalol in acetonitrile (100 μL/well) (2:1, vol/vol). Each time point is tested in triplicate. Analysis is carried out by LC-MS.
• Instrument: QExactive • Column: Luna Omega 1.6 μm polar C18 100 Å (150×2.1 mm) • Column temperature: 40° C. • Column No: 102+pre-column installed • Injection volume: 2 μl • Flux: 0.40 mL/min • Polarity: Negative • Fluent A: water Milli Q+0.1% FA • Fluent B: ACN+0.1% FA • Acquisition method: Full MS+DDS on the IL obtained with MassMetaSite (peak others ON).

[2] = Egg concentration analysis from topically treated chickens; format: in vivo; details: in vivo
Procedure: One animal is left untreated as a negative control.
A modified and optimized QuEChERS protocol was employed to extract the compounds from eggs. The shell is manually removed, and then each egg is transferred to a clean beaker and homogenized with an electric mixer for small volumes. 5 grams of homogenized egg is put into a 50 mL Falcon tube, and 5 mL of water is added and the samples are shaken for 10 minutes. Next, 10 mL of acetonitrile is added and the samples are shaken again for 10 minutes. Then the roQ salts (4.0 g MgSO4, 1.0 g NaCl, 1.0 SCTD and 0.5 g SCDS, Phenomenex P/N KS08909) are added to each sample, and the mixture is well shaken for 10 minutes. Samples are then centrifuged at 2500 g for 5 minutes at room temperature, and the supernatant is transferred to an HPLC vial for analysis. The same HPLC-MS method is used as described above.
One egg from two chickens is analyzed: one chicken treated with Fipronil and one chicken treated with the Compound of Example 1. The eggs are both from Day 5. The results are shown in the following tables expressed as relative LC-MS peak area: […]

[3] = system: Dermanyssus gallinae; assay: Antiparasitic efficacy on live chickens with natural mite infestation; format: in vivo; details: by day 5 of treatment; 0.25% (w/v) spray, 7.5 mg/kg once daily for 5 days
Procedure: Two animals are treated with the compound of Example 1, and two animals are treated with Fipronil, while one animal is left untreated as a negative control. The infestation by D. gallinae is monitored by checking the density of mites in particular areas of the animal's bodies (feet, legs, and wings), comparing pre-treatment levels of infestation to post-treatment levels.
When all pests have been eliminated, a 100% pest control capability was achieved. In the case of some chemical products, when the pest was not fully eliminated, the disinfestation capacity was measured by averaging the number of infesting organisms located in three distinct areas of the treated animals, at the beginning of the treatment, and at the end of the treatment.

[4] = system: adult worker honeybees, Apis mellifera L; assay: Acute oral toxicity test in honeybees (OECD 213); format: in vivo
Procedure: Untreated 50% w/v sucrose solution with 0.2% of propanol-water solution (ratio 80%-20%) is used as a negative control.
The test item is diluted with aqueous sucrose solution 50% (w/v) to prepare the oral solutions. The bees used for the oral test are anesthetized with carbon dioxide for the time necessary to immobilize them and placed inside the test cages; 2 hours before the treatment they are starved. A volume of 200 μL (20 μL/bee) of treated diet is administered to each cage with a dispenser (e.g., a syringe without tip), weighed before and after filling.
The overall exposure period is 6 hours, during which consumption is monitored: the feeder is changed at the end of the six hours or once the treated diet has been consumed (usually within 3-4 hours). In both cases, the feeder is weighed and a new feeder with untreated 50% (w/v) sucrose solution is provided ad libitum, and the mean effective dose is calculated based on the actual consumption.

[5] = system: adult worker honeybees, Apis mellifera L; details: contact
Excerpt: In accordance with OECD Test Guidelines No. 213 and 214, the test is considered valid if: (1) the average mortality of the control groups is ≤10% at the end of the test; and the average, control-corrected mortality of the reference item groups is ≥50% at the end of the test, at the tested dose (internal validity criteria according to POS BT200).
Young Apis mellifera L. worker honeybees are randomly collected in the morning of use or the day before from an adequately fed, healthy diseases-free and queen right beehive, not treated with chemical substances. Hives from an established apiary colony are used, and the colonies are inspected periodically, according to standard bee-keeping practices. All colonies are kept outside under field conditions and bees collect food from the environment. The last treatment against Varroa mites was done in November 2023. The bees are fed ad libitum with a water sucrose solution 50% w/v (or 500 g/L), prepared with tap water.
Adult worker honeybees are exposed to three increasing doses of the test item (see Table 2) by direct application to the thorax (droplets, see section 4.5.2). One control group is treated with propanol-water solution (ratio 80%-20%) in addition to test item groups.
Bee mortality is recorded after 4, 24 and 48 hours, and compared with the control value. If the mortality rate increases by more than 10% between 24 and 48 hours, whilst the control mortality rate remains ≤10%, the is extended to a maximum of 96 hours.
The test item is diluted in propanol-water solution (ratio 80%-20%) to prepare the contact solutions.
The bees used for the contact test are anaesthetized with carbon dioxide and individually treated by topical application of 2 μL of the test solutions onto the thorax using a micro applicator. The honeybees are then be moved to the cages and fed ad libitum with sucrose solution.
Disposable and well-ventilated cages with an internal volume not lower than 200 cm^3 are used. Each cage is equipped with a transparent lid, for a suitable observation of the bees from outside. The upper side of the cage has at least one hole for inserting the feeder: a syringe filled of 50% (w/v) aqueous sucrose solution is inserted in one hole.
The tests are conducted under the following conditions: (a) Temperature: 25.00[…]; (b) Relative humidity: 60.00[…], The honeybees are kept under constant darkness except during the assessments. Throughout the experimental phase, the temperature and relative humidity is continuously recorded with a dedicated data-logger with sensors located close to the test units.
The number of dead honeybees per cage is recorded after 4, 24 and 48 hours. If a prolonged observation period is required, further assessments are made every 24 hours, tip to a maximum duration of 96 hours. The amount of diet consumed per group is quantitatively estimated if treated diet will be left after 6 hours of exposure.
Data is summarized in tabular form, showing the number of live, dead and abnormal bees per experimental group. The mortality of each replicate is calculated as a percentage, comparing the number of dead bees to those introduced at the beginning. The mean value of the treated group is compared to the mean mortality of the respective control group(s) using the Abbott's formula modified by Schneider-Orelli (POS BT 200): […]

N#Cc1nn(-c2c(Cl)cc(C(F)(F)F)cc2Cl)c2nc(O)cc(C(F)F)c12 [Example 4, 1-(2,6-dichloro-4-(trifluoromethyl)phenyl)-4-(difluoromethyl)-6-hydroxy-1H-pyrazolo[3,4-b]pyridine-3-carbonitrile]
Original compound still present ([1]; after 240 minutes, 1 μM, 500,000 cells/mL, 37° C.): approximately 84.2% | Metabolic stability (in words) ([1]; human hepatocytes, up to 240 min, 1 μM): highly metabolically stable

NC(=O)c1nn(-c2c(Cl)cc(C(F)(F)F)cc2Cl)c(N)c1[S+]([O-])C(F)(F)F (stereo not drawn) [Fipronil Amide, Fipronil amide]
Relative LC-MS peak area of analyte in egg [2]: 3.8

N#Cc1nn(-c2c(Cl)cc(C(F)(F)F)cc2Cl)c(N)c1S(=O)(=O)C(F)(F)F [Fipronil Sulfone, Fipronil sulfone]
Relative LC-MS peak area of analyte in egg ([2]; chicken, 5 days): 5.6

N#Cc1nn(-c2c(Cl)cc(C(F)(F)F)cc2Cl)c(N)c1[S+]([O-])C(F)(F)F (stereo not drawn) [Fipronil, reference compound]
Relative LC-MS peak area of analyte in egg ([2]; chicken, 5 days): 4.8 | Chickens free of mites [3]: 100% | % CM (4 hours) ([4]; group T1, dose 0.002 μg/bee): 0.0% | % CM (24 hours) ([4]; group T1, dose 0.002 μg/bee): 20.8% | % CM (48 hours) ([4]; group T1, dose 0.002 μg/bee): 23.8% | % CM (4 hours) ([4]; group T2, dose 0.004 μg/bee): 0.0% | % CM (24 hours) ([4]; group T2, dose 0.004 μg/bee): 37.5% | % CM (48 hours) ([4]; group T2, dose 0.004 μg/bee): 33.3% | % CM (4 hours) ([4]; group T3, dose 0.006 μg/bee): 3.3% | % CM (24 hours) ([4]; group T3, dose 0.006 μg/bee): 58.3% | % CM (48 hours) ([4]; group T3, dose 0.006 μg/bee): 66.7% | % CM (4 hours) ([5]; group T1, dose 0.002 μg/bee): 0.0% | % CM (24 hours) ([5]; group T1, dose 0.002 μg/bee): 7.1% | % CM (48 hours) ([5]; group T1, dose 0.002 μg/bee): 7.7% | % CM (4 hours) ([5]; group T2, dose 0.004 μg/bee): 0.0% | % CM (24 hours) ([5]; group T2, dose 0.004 μg/bee): 25.0% | % CM (48 hours) ([5]; group T2, dose 0.004 μg/bee): 30.8% | % CM (4 hours) ([5]; group T3, dose 0.006 μg/bee): 0.0% | % CM (24 hours) ([5]; group T3, dose 0.006 μg/bee): 71.4% | % CM (48 hours) ([5]; group T3, dose 0.006 μg/bee): 76.9%
